# In patent US10351586B2, “Cytidine derivative dimers and applications thereof” (CHANGZHOU FANGYUAN PHARMACEUTICAL CO., LTD, priority 2014, dated 2019):
# Marks after values point to notes of the source that are not given here.
# What was measured:
# [1] = system: HCT-116 human colon cancer xenografts; assay: Tumor growth inhibition of HCT-116 human colon cancer xenografts in nude mice; type: in vivo, Balb/c nude mice; settings: for Relative tumor proliferation rate (T/C %) / Relative tumor volume (RTV) / Tumor growth inhibition rate (TGI %) / Tumor volume of HCT-116 human colon cancer xenografts: single IP injection (QD×1), D1 and D2 400 mg/kg, D3 350 mg/kg, D4 300 mg/kg; for Tumor volume of HCT-116 human colon cancer xenografts: Mean±SEM
# Experimental: 2. Preparation of the test substance was performed by dissolving the test substance using the following solvents:
# 3. Animal experiments were performed. […] Animals were numbered using their tail number.
# 4.1 Tumor cells were human HCT-116 colon cancer cells purchased from the Institute of Cell Biology, Chinese Academy of Sciences (Beijing, China). F-12 medium (containing 10% FBS) was used to culture cells in a carbon dioxide incubator at about 37° C., saturated humidity, under 5% CO2 and 95% air. Before inoculation, cells in logarithmic growth phase were collected. After digested by 0.25% trypsin, the cells were washed with PBS once. The cells were resuspended with serum-free medium and counted. Serum-free medium were used for cell resuspension, until the cell concentration was adjusted to about 3×10^7 cell/mL.
# 4.2 Animal inoculation and grouping were performed.
# The diameters (D) of the tumor nodules were measured three times a week with a circle sizer ruler. In addition, the following formula was applied to calculate the volume of the tumor nodules (V): V=[…](D/2)^3 generally for a spherical shape. Evaluation indexes of antitumor activity were tumor growth inhibition rate TGI (%) and relative tumor proliferation rate T/C (%).
# The calculation formula of TGI was: TGI (%)=(Vcontrol−VTreatment)/Vcontrol)×100%. The relative tumor volume (RTV) was calculated by: RTV=Vt/V0, where V0 is the tumor volume at the time of group administration, and Vt is the tumor volume at the time of measurement.
# The mice were weighed 3 times every week.
# 4.5 Data and statistical analysis were provided.
# [2] = Body weight / toxicity of a single intraperitoneal injection in HCT-116 colon tumor-bearing nude mice; settings: D3 350 mg/kg, D4 300 mg/kg; for Average rate of weight change of the animals / Average weight of the animals: single IP injection (QD×1), D1 and D2 400 mg/kg; for Average weight of the animals: Mean±SEM
# Experimental: Corresponding test substance was weighed and put into a 5 mL glass tube. The test substance was dissolved in ethanol under the stirring by a 5 mm magnetic stirrer. After a complete dissolution, Cremophor EL was added with continuous stirring. Immediately prior to the user of the test substance, the labeled amount of physiological saline was added and stirred.
# Animal experiments were performed. The animals were female Balb/c nude mice at specific pathogen free (SPF) level and were supplied from Shanghai Sippr/BK Lab Animal Ltd. (Shanghai, China). […] These animals were at the age of about 7 weeks to about 9 weeks at the beginning of the experiments and had the weight of about 18 grams to about 22 grams at the beginning of the experiment. The animals had acclimatization duration of about 5 days to about 7 days. Animals were numbered using their tail number. The animal room was maintained at about 23±2° C., 40%-70% humidity, with alternating light and dark every 12 hours.
# 4.2 Animal inoculation and grouping were performed. Under aseptic conditions, each nude mice was injected with 0.1 mL cell suspension into the right hind leg subcutaneously (3×10^6 cell/mouse). When the size of the tumor grew to have a volume of about 60-150 mm^3, nude mice with a similar tumor size and a desirable shape (e.g., with substantially same shape such as a substantially spherical shape, without having irregular shapes or multiple tumors grouped together) were selected and grouped. In the experiment, there were six mice in each group.
# The mice in control group were injected with a mixed solution including ethanol, Cremophor EL and normal saline at a ratio of 5:5:90.
# 4.4 Clinical symptoms were provided. All clinical symptoms of each animal were recorded at the beginning of the experiments and during the experiments. The observation was performed at the same time every day.
# After administration of the test substance, when the weight reduction was >20%, when the animal was dying, or when the tumor volume exceeds about 2800 mm^3, the animal were euthanized by applying CO2. The tumor was separated and weighed, an autopsy was performed, and visual inspection was conducted and recorded on whether there were pathological changes in the organs.
# [3] = D1 400 mg/kg Day 7, D2 400 mg/kg Day 9, D3 350 mg/kg Day 11, D4 300 mg/kg Day 11, single IP
smiles,measurement,setting,value
"CCCCOC(=O)Nc1ccn([C@H]2O[C@@H](COC(=O)CCC(=O)OC[C@H]3O[C@@H](n4ccc(NC(=O)OCCCC)nc4=O)C(F)(F)[C@@H]3O)[C@H](O)C2(F)F)c(=O)n1 (stereo in doubt) [Compound D2, 1,5-di-[4-N-(n-butoxycarbonyl)-2′-deoxy-2′,2′-difluoro-cytidine]glutarate]","Relative tumor proliferation rate, minimum",[1]; [3],14.41%
same,"Tumor inhibition rate, maximum",[1]; [3],94.79%
same,Relative tumor proliferation rate (T/C %),[1]; Day 0,0.00%
same,Relative tumor volume (RTV),[1]; Day 0,1.00
same,Tumor growth inhibition rate (TGI %),[1]; Day 0,0.00%
same,Tumor volume of HCT-116 human colon cancer xenografts,[1]; Day 0,53.09 ± 9.33** mm^3
same,Relative tumor proliferation rate (T/C %),[1]; Day 1,50.15%
same,Relative tumor volume (RTV),[1]; Day 1,0.89 ± 0.10
same,Tumor growth inhibition rate (TGI %),[1]; Day 1,71.87%
same,Tumor volume of HCT-116 human colon cancer xenografts,[1]; Day 1,50.78 ± 14.16** mm^3
same,Relative tumor proliferation rate (T/C %),[1]; Day 2,40.78%
same,Relative tumor volume (RTV),[1]; Day 2,0.95 ± 0.15
same,Tumor growth inhibition rate (TGI %),[1]; Day 2,74.81%
same,Tumor volume of HCT-116 human colon cancer xenografts,[1]; Day 2,55.89 ± 18.82** mm^3
same,Relative tumor proliferation rate (T/C %),[1]; Day 4,25.19%
same,Relative tumor volume (RTV),[1]; Day 4,0.73 ± 0.19
same,Tumor growth inhibition rate (TGI %),[1]; Day 4,84.53%
same,Tumor volume of HCT-116 human colon cancer xenografts,[1]; Day 4,45.96 ± 20.25** mm^3
same,Relative tumor proliferation rate (T/C %),[1]; Day 7,16.63%
same,Relative tumor volume (RTV),[1]; Day 7,0.52 ± 0.23
same,Tumor growth inhibition rate (TGI %),[1]; Day 7,91.71%
same,Tumor volume of HCT-116 human colon cancer xenografts,[1]; Day 7,35.87 ± 21.79** mm^3
same,Relative tumor proliferation rate (T/C %),[1]; Day 9,14.41%
same,Relative tumor volume (RTV),[1]; Day 9,0.46 ± 0.17
same,Tumor growth inhibition rate (TGI %),[1]; Day 9,94.79%
same,Tumor volume of HCT-116 human colon cancer xenografts,[1]; Day 9,30.75 ± 16.74** mm^3
same,Relative tumor proliferation rate (T/C %),[1]; Day 11,16.77%
same,Relative tumor volume (RTV),[1]; Day 11,0.87 ± 0.35
same,Tumor growth inhibition rate (TGI %),[1]; Day 11,94.13%
same,Tumor volume of HCT-116 human colon cancer xenografts,[1]; Day 11,57.29 ± 33.0** mm^3
same,Relative tumor proliferation rate (T/C %),[1]; Day 14,18.33%
same,Relative tumor volume (RTV),[1]; Day 14,1.80 ± 0.69
same,Tumor growth inhibition rate (TGI %),[1]; Day 14,91.88%
same,Tumor volume of HCT-116 human colon cancer xenografts,[1]; Day 14,116.87 ± 66.85** mm^3
same,Relative tumor proliferation rate (T/C %),[1]; Day 16,21.64%
same,Relative tumor volume (RTV),[1]; Day 16,2.66 ± 0.88
same,Tumor growth inhibition rate (TGI %),[1]; Day 16,90.63%
same,Tumor volume of HCT-116 human colon cancer xenografts,[1]; Day 16,169.73 ± 88.15** mm^3
same,Relative tumor proliferation rate (T/C %),[1]; Day 18,21.99%
same,Relative tumor volume (RTV),[1]; Day 18,4.20 ± 1.02
same,Tumor growth inhibition rate (TGI %),[1]; Day 18,86.88%
same,Tumor volume of HCT-116 human colon cancer xenografts,[1]; Day 18,262.10 ± 111.14** mm^3
same,Relative tumor proliferation rate (T/C %),[1]; Day 21,34.57%
same,Relative tumor volume (RTV),[1]; Day 21,8.09 ± 1.52
same,Tumor growth inhibition rate (TGI %),[1]; Day 21,79.99%
same,Tumor volume of HCT-116 human colon cancer xenografts,[1]; Day 21,489.13 ± 174.91 mm^3
same,Relative tumor proliferation rate (T/C %),[1]; Day 23,42.87%
same,Relative tumor volume (RTV),[1]; Day 23,8.48 ± 1.37
same,Tumor growth inhibition rate (TGI %),[1]; Day 23,78.74%
same,Tumor volume of HCT-116 human colon cancer xenografts,[1]; Day 23,501.98 ± 170.25 mm^3
same,Relative tumor proliferation rate (T/C %),[1]; Day 25,44.51%
same,Relative tumor volume (RTV),[1]; Day 25,9.62 ± 1.48
same,Tumor growth inhibition rate (TGI %),[1]; Day 25,77.96%
same,Tumor volume of HCT-116 human colon cancer xenografts,[1]; Day 25,569.05 ± 189.18 mm^3
same,Relative tumor proliferation rate (T/C %),[1]; Day 28,56.94%
same,Relative tumor volume (RTV),[1]; Day 28,12.03 ± 1.50
same,Tumor growth inhibition rate (TGI %),[1]; Day 28,74.35%
same,Tumor volume of HCT-116 human colon cancer xenografts,[1]; Day 28,689.78 ± 203.52 mm^3
same,Relative tumor proliferation rate (T/C %),[1]; Day 30,63.87%
same,Relative tumor volume (RTV),[1]; Day 30,15.85 ± 1.92
same,Tumor growth inhibition rate (TGI %),[1]; Day 30,67.91%
same,Tumor volume of HCT-116 human colon cancer xenografts,[1]; Day 30,900.52 ± 250.44 mm^3
same,Inhibition of growth of HCT-116 human colon cancer xenografts (in words),"[1]; single IP injection, 300-400 mg/kg",higher tumor inhibition rates
same,Average rate of weight change of the animals,[2]; Day 0,0.00%
same,Average weight of the animals,[2]; Day 0,19.87 ± 0.25 g
same,Average rate of weight change of the animals,[2]; Day 1,−0.08 ± 0.74%
same,Average weight of the animals,[2]; Day 1,19.85 ± 0.28 g
same,Average rate of weight change of the animals,[2]; Day 2,−8.54 ± 1.31 %
same,Average weight of the animals,[2]; Day 2,18.17 ± 0.31 g
same,Average rate of weight change of the animals,[2]; Day 4,−10.63 ± 2.13 %
same,Average weight of the animals,[2]; Day 4,17.75 ± 0.44 g
same,Average rate of weight change of the animals,[2]; Day 7,−6.98 ± 1.43%
same,Average weight of the animals,[2]; Day 7,18.48 ± 0.40 g
same,Average rate of weight change of the animals,[2]; Day 9,0.21 ± 1.42%
same,Average weight of the animals,[2]; Day 9,19.92 ± 0.45 g
same,Average rate of weight change of the animals,[2]; Day 11,2.72 ± 1.85%
same,Average weight of the animals,[2]; Day 11,20.42 ± 0.53 g
same,Average rate of weight change of the animals,[2]; Day 14,4.87 ± 2.08 %
same,Average weight of the animals,[2]; Day 14,20.85 ± 0.60 g
same,Average rate of weight change of the animals,[2]; Day 16,6.32 ± 1.65 %
same,Average weight of the animals,[2]; Day 16,21.13 ± 0.51 g
same,Average rate of weight change of the animals,[2]; Day 18,8.83 ± 1.43 %
same,Average weight of the animals,[2]; Day 18,21.63 ± 0.51 g
same,Average rate of weight change of the animals,[2]; Day 21,4.22 ± 1.23 %
same,Average weight of the animals,[2]; Day 21,20.72 ± 0.46 g
same,Average rate of weight change of the animals,[2]; Day 23,3.66 ± 1.05 %
same,Average weight of the animals,[2]; Day 23,20.60 ± 0.40 g
same,Average rate of weight change of the animals,[2]; Day 25,5.07 ± 1.44%
same,Average weight of the animals,[2]; Day 25,20.88 ± 0.48 g
same,Average rate of weight change of the animals,[2]; Day 28,1.57 ± 1.50%
same,Average weight of the animals,[2]; Day 28,20.18 ± 0.44 g
same,Average rate of weight change of the animals,[2]; Day 30,2.28 ± 1.75%
same,Average weight of the animals,[2]; Day 30,20.33 ± 0.55 g
same,Toxicity in tumor-bearing mice (in words),"[2]; single IP injection, D2 400 mg/kg, judged from body weight versus control",no toxicity
